How the values were obtained:
[1] = tested on: A549/DDP tumor model; assay: Anti-tumor effect, A549/DDP subcutaneous tumor model; type: in vivo, nude mice; conditions: platinum 1 mg/kg once every 5 days, 25 days
[2] = Serum ALT, AST, ALP and urea nitrogen after treatment; type: in vivo, Balb/c mice; conditions: 7 days after complete injection; tail vein, once every 5 days, 5 administrations
Procedure: 12. […] Each mouse was administered via the tail vein (1 mg/mL, once every 5 days). After a total of 5 administrations for 25 days, each mouse was taken by eyeball blood sampling at 7, 14, 21, and 28 days after administration. A 0.5 mL blood sample from a mouse was placed overnight at 4° C. and centrifuged at 1000 rpm for 5 min. The upper clarified serum 200 μL was taken out to measure the alanine aminotransferase (ALT), aspartate aminotransferase (AST), alkaline phosphatase (ALP) and urea nitrogen (Urea) contents.

[3] = tested on: A549 tumor model; assay: Anti-tumor effect, A549 subcutaneous tumor model; type: in vivo
[4] = tested on: HepG-2 cell line; assay: MTT cytotoxicity on HepG-2 cell line; type: cell-based, human; conditions: 24 hours
Procedure: Placing the plate in a cell incubator for 12 hours at constant temperature. […] After 24 hours in the incubator, replace the culture medium, add 10 μL of MTT (3-(4,5-dimethylthiazol-2-yl)-2,5-diphenyltetrazolium bromide) PBS (phosphate-buffered saline) solution with a concentration of 5 mg/mL, discard the culture medium after 4 hours, add 200 μL of DMSO (dimethylsulfoxide), shake for 10 minutes, measure the absorbance value at 490 nm with a microplate reader.

N.N.[Cl][Pt][Cl] [cisplatin]
effect on tumor growth [1]: a certain tumor-inhibiting effect | serum urea nitrogen content versus control group [2]: significantly different from that of the control group | effect on tumor growth ([3]; A549 tumor model, platinum 1 mg/kg once every 5 days, 25 days): a certain tumor-inhibiting effect | condition of the nude mice during the observation period ([3]; mouse, in vivo): in poor condition and lost weight | IC50 for HepG-2 cell line [4]: 12.6 µg/mL

From patent publication US12364667B2, “Anti-tumor platinum-based drug mineralized protein nanoparticle, preparation method therefor and use thereof” (SOOCHOW UNIVERSITY, priority 2019, dated 2025)
